Laboratory results from publication PMC5218480 (PLoS ONE, 2017).

Tested on: MV-4-11 cells
Assay: Gene expression microarray analysis (Affymetrix PrimeView) and GSEA
Type: cell-based, human
Design: RFU PODN (11730768_x_at) / Fold change /veh PODN (11730768_x_at) / RFU LINC00158 (11744669_a_at) / Fold change /veh LINC00158 (11744669_a_at) / RFU DUSP10 (11751237_a_at) / Fold change /veh DUSP10 (11751237_a_at) / RFU ID3 (11757404_x_at) / Fold change /veh ID3 (11757404_x_at) / RFU PLEKHG5 (11737974_s_at) / Fold change /veh PLEKHG5 (11737974_s_at) / RFU LRRC4B (11730491_at) / Fold change /veh LRRC4B (11730491_at) / RFU GIMAP4 (11747438_a_at) / Fold change /veh GIMAP4 (11747438_a_at) / RFU KRT8 (11758183_x_at) / Fold change /veh KRT8 (11758183_x_at) / RFU CNN1 (11734310_a_at) / Fold change /veh CNN1 (11734310_a_at) / RFU VPS37D (11726825_at) / Fold change /veh VPS37D (11726825_at) / RFU C10orf10 (11716522_x_at) / Fold change /veh C10orf10 (11716522_x_at) / RFU KIR2DL2 /// KIR2DL4 /// KIR2DL5A /// KIR2DL5B /// KIR2DS1 /// KIR2DS2 /// KIR2DS3 /// KIR2DS4 /// KIR3DL3 /// KIR3DL3 /// KIR3DS1 (11738374_at) / Fold change /veh KIR2DL2 /// KIR2DL4 /// KIR2DL5A /// KIR2DL5B /// KIR2DS1 /// KIR2DS2 /// KIR2DS3 /// KIR2DS4 /// KIR3DL3 /// KIR3DL3 /// KIR3DS1 (11738374_at) / RFU C1QL1 (11718748_at) / Fold change /veh C1QL1 (11718748_at) / RFU TMPRSS4 (11747572_a_at) / Fold change /veh TMPRSS4 (11747572_a_at) / RFU HAMP (11756126_x_at) / Fold change /veh HAMP (11756126_x_at) / RFU RNFT2 (11725882_a_at) / Fold change /veh RNFT2 (11725882_a_at) / RFU NR4A2 (11747474_a_at) / Fold change /veh NR4A2 (11747474_a_at) / RFU ABCC12 (11746883_a_at) / Fold change /veh ABCC12 (11746883_a_at) / RFU TMEM136 (11760407_x_at) / Fold change /veh TMEM136 (11760407_x_at) / RFU CLDN22 /// WWC2 (11732394_at) / Fold change /veh CLDN22 /// WWC2 (11732394_at) / RFU HLA-DPB1 (11760878_x_at) / Fold change /veh HLA-DPB1 (11760878_x_at) / RFU SPINT1 (11716480_a_at) / Fold change /veh SPINT1 (11716480_a_at) / RFU GAP43 (11754022_s_at) / Fold change /veh GAP43 (11754022_s_at) / RFU A4GNT (11735810_at) / Fold change /veh A4GNT (11735810_at) / RFU PRB3 (11715151_x_at) / Fold change /veh PRB3 (11715151_x_at) / RFU TUBB4B (11761932_at) / Fold change /veh TUBB4B (11761932_at) / RFU CAPN14 (11732068_a_at) / Fold change /veh CAPN14 (11732068_a_at) / RFU TMCC2 (11721928_a_at) / Fold change /veh TMCC2 (11721928_a_at) / RFU IRGQ (11745062_a_at) / Fold change /veh IRGQ (11745062_a_at) / RFU FAM174B (11720279_a_at) / Fold change /veh FAM174B (11720279_a_at) / RFU TMPRSS4 (11748680_a_at) / Fold change /veh TMPRSS4 (11748680_a_at) / RFU FAM212B (11763350_a_at) / Fold change /veh FAM212B (11763350_a_at) / RFU PLEKHG5 (11743358_a_at) / Fold change /veh PLEKHG5 (11743358_a_at) / RFU ZSCAN30 (11745921_a_at) / Fold change /veh ZSCAN30 (11745921_a_at) / RFU CMKLR1 (11741424_a_at) / Fold change /veh CMKLR1 (11741424_a_at) / RFU LOC101060620 /// MAPK8IP1 (11723275_at) / Fold change /veh LOC101060620 /// MAPK8IP1 (11723275_at) / RFU SPTSSB (11747773_x_at) / Fold change /veh SPTSSB (11747773_x_at) / RFU PRSS12 (11739890_at) / Fold change /veh PRSS12 (11739890_at) / RFU BIN1 (11741810_x_at) / Fold change /veh BIN1 (11741810_x_at) / RFU WNT11 (11732464_a_at) / Fold change /veh WNT11 (11732464_a_at) / RFU C10orf10 (11716521_a_at) / Fold change /veh C10orf10 (11716521_a_at) / RFU C5orf56 (11738089_at) / Fold change /veh C5orf56 (11738089_at) / RFU CYB561 (11721691_x_at) / Fold change /veh CYB561 (11721691_x_at) / RFU ANKRD19P (11752326_a_at) / Fold change /veh ANKRD19P (11752326_a_at) / RFU OR2T12 /// OR2T33 /// OR2T8 (11738714_s_at) / Fold change /veh OR2T12 /// OR2T33 /// OR2T8 (11738714_s_at) / RFU VCAN (11748164_a_at) / Fold change /veh VCAN (11748164_a_at) / RFU JSRP1 (11732532_at) / Fold change /veh JSRP1 (11732532_at) / RFU KRTAP10-11 (11738290_x_at) / Fold change /veh KRTAP10-11 (11738290_x_at) / RFU MYO3A (11730013_a_at) / Fold change /veh MYO3A (11730013_a_at) / RFU EBF3 (11725865_a_at) / Fold change /veh EBF3 (11725865_a_at) / RFU CAMK2N1 (11719241_x_at) / Fold change /veh CAMK2N1 (11719241_x_at) / RFU C5orf56 (11738088_a_at) / Fold change /veh C5orf56 (11738088_a_at) / RFU OLFML3 (11715873_a_at) / Fold change /veh OLFML3 (11715873_a_at) / RFU LOC100653217 /// NTM (11731650_a_at) / Fold change /veh LOC100653217 /// NTM (11731650_a_at) / RFU MAPK11 (11762145_a_at) / Fold change /veh MAPK11 (11762145_a_at) / RFU FIZ1 (11724087_x_at) / Fold change /veh FIZ1 (11724087_x_at) / RFU OASL (11726364_x_at) / Fold change /veh OASL (11726364_x_at) / RFU SOX15 (11748057_x_at) / Fold change /veh SOX15 (11748057_x_at) / RFU CD79A (11719716_a_at) / Fold change /veh CD79A (11719716_a_at) / RFU HIST1H1D (11736915_at) / Fold change /veh HIST1H1D (11736915_at) / RFU CASKIN2 (11723855_a_at) / Fold change /veh CASKIN2 (11723855_a_at) / RFU LOC730098 (11760151_x_at) / Fold change /veh LOC730098 (11760151_x_at) / RFU OR4N2 (11742367_at) / Fold change /veh OR4N2 (11742367_at) / RFU PRRT2 (11749266_a_at) / Fold change /veh PRRT2 (11749266_a_at) / RFU SNX32 (11753110_a_at) / Fold change /veh SNX32 (11753110_a_at) / RFU CDHR5 (11726645_a_at) / Fold change /veh CDHR5 (11726645_a_at) / RFU RCAN1 (11760418_a_at) / Fold change /veh RCAN1 (11760418_a_at) / RFU FAM167A (11723789_a_at) / Fold change /veh FAM167A (11723789_a_at) / RFU FAM26E (11764081_at) / Fold change /veh FAM26E (11764081_at) / RFU ISYNA1 (11749810_s_at) / Fold change /veh ISYNA1 (11749810_s_at) / RFU ACY1 (11761880_at) / Fold change /veh ACY1 (11761880_at) / RFU 11764098_at / Fold change /veh 11764098_at / RFU SAMD14 (11745864_x_at) / Fold change /veh SAMD14 (11745864_x_at) / RFU NPB (11741838_a_at) / Fold change /veh NPB (11741838_a_at) / RFU TMPRSS6 (11731388_a_at) / Fold change /veh TMPRSS6 (11731388_a_at) / RFU KRTAP10-2 (11738614_at) / Fold change /veh KRTAP10-2 (11738614_at) / RFU ARHGAP8 /// PRR5-ARHGAP8 (11727945_x_at) / Fold change /veh ARHGAP8 /// PRR5-ARHGAP8 (11727945_x_at) / RFU KRTAP5-7 /// NADSYN1 (11734609_at) / Fold change /veh KRTAP5-7 /// NADSYN1 (11734609_at) / RFU RASL12 (11751679_a_at) / Fold change /veh RASL12 (11751679_a_at) / RFU CDKN2B (11736163_a_at) / Fold change /veh CDKN2B (11736163_a_at) / RFU PRF1 (11729649_at) / Fold change /veh PRF1 (11729649_at) / RFU, ZNF638 /// ZNF638-IT1 / Fold change vs veh, ZNF638 /// ZNF638-IT1 / RFU, PANK3 / Fold change vs veh, PANK3 / RFU, SH3YL1 / Fold change vs veh, SH3YL1 / RFU, ZEB2 / Fold change vs veh, ZEB2 / RFU, NRIP1 / Fold change vs veh, NRIP1 / RFU, PTTG1IP / Fold change vs veh, PTTG1IP / RFU, CAPN2 / Fold change vs veh, CAPN2 / RFU, MED14 / Fold change vs veh, MED14 / RFU, SNORA58 / Fold change vs veh, SNORA58 / RFU, C1orf63 / Fold change vs veh, C1orf63 / RFU, LRRFIP1 / Fold change vs veh, LRRFIP1 / RFU, NDUFAF7 / Fold change vs veh, NDUFAF7 / RFU, SLC12A2 / Fold change vs veh, SLC12A2 / RFU, IBTK / Fold change vs veh, IBTK / RFU, ESF1 / Fold change vs veh, ESF1 / Fold change vs veh, TMEM50B / RFU, TAOK1 / Fold change vs veh, TAOK1 / RFU, ACBD3 / Fold change vs veh, ACBD3 / RFU, TMA16 / Fold change vs veh, TMA16 / RFU, RWDD3 / Fold change vs veh, RWDD3 / RFU, BCAT1 / Fold change vs veh, BCAT1 / RFU, EDEM3 / Fold change vs veh, EDEM3 / RFU, TMEM33 / Fold change vs veh, TMEM33 / RFU, WDR75 / Fold change vs veh, WDR75 / RFU, AHCTF1 / Fold change vs veh, AHCTF1 / RFU, TFRC / Fold change vs veh, TFRC / RFU, ZDHHC17 / Fold change vs veh, ZDHHC17 / RFU, NOM1 / Fold change vs veh, NOM1 / RFU, ARL8B / Fold change vs veh, ARL8B / RFU, ZBTB11 / Fold change vs veh, ZBTB11 / RFU, TAMM41 / Fold change vs veh, TAMM41 / RFU, KIAA1704 /// LOC100996395 / Fold change vs veh, KIAA1704 /// LOC100996395 / RFU, ING1 / Fold change vs veh, ING1 / RFU, TRMT61B / Fold change vs veh, TRMT61B / RFU, FUBP3 / Fold change vs veh, FUBP3 / RFU, TP53 / Fold change vs veh, TP53 / RFU, TNKS2 / Fold change vs veh, TNKS2 / RFU, ZFP14 / Fold change vs veh, ZFP14 / RFU, ACTR2 / Fold change vs veh, ACTR2 / RFU, PPP3R1 / Fold change vs veh, PPP3R1 / RFU, PIK3R1 / Fold change vs veh, PIK3R1 / RFU, HNRNPA1 / Fold change vs veh, HNRNPA1 / RFU, RNF170 / Fold change vs veh, RNF170 / RFU, ZNF28 / Fold change vs veh, ZNF28 / RFU, RNGTT / Fold change vs veh, RNGTT / RFU, OGT / Fold change vs veh, OGT / RFU, BRD1 / Fold change vs veh, BRD1 / RFU, MARS / Fold change vs veh, MARS / RFU, ZNF655 / Fold change vs veh, ZNF655 / RFU, FAHD1 / Fold change vs veh, FAHD1 / RFU, BDP1 / Fold change vs veh, BDP1 / RFU, LRRCC1 / Fold change vs veh, LRRCC1 / RFU, ARID1A / Fold change vs veh, ARID1A / RFU, ZNF146 / Fold change vs veh, ZNF146 / RFU, ZNF330 / Fold change vs veh, ZNF330 / RFU, GPN3 / Fold change vs veh, GPN3 / RFU, C9orf123 / Fold change vs veh, C9orf123 / RFU, N4BP2L2 / Fold change vs veh, N4BP2L2 / RFU, ARFIP1 / Fold change vs veh, ARFIP1 / RFU, FAM179B / Fold change vs veh, FAM179B / RFU, BCL10 / Fold change vs veh, BCL10 / RFU, UHRF1BP1L / Fold change vs veh, UHRF1BP1L / RFU, BET1 / Fold change vs veh, BET1 / RFU, CNOT2 / Fold change vs veh, CNOT2 / RFU, ZNF268 / Fold change vs veh, ZNF268 / Fold change vs veh, ZNF507 / RFU, DGCR2 / Fold change vs veh, DGCR2 / RFU, WDSUB1 / Fold change vs veh, WDSUB1 / Fold change vs veh, HSP90B1 /// MIR3652 / RFU, ADSS / Fold change vs veh, ADSS / RFU, GK / Fold change vs veh, GK / RFU, ZNF148 / Fold change vs veh, ZNF148 / RFU, TAF9 / Fold change vs veh, TAF9 / RFU, SLC1A5 / Fold change vs veh, SLC1A5 / RFU, SLMO2 / Fold change vs veh, SLMO2 / RFU, ABCC4 / Fold change vs veh, ABCC4 / RFU, LOC101060439 /// RAP1B / Fold change vs veh, LOC101060439 /// RAP1B / RFU, RFX7 / Fold change vs veh, RFX7 / RFU, GTPBP10 / Fold change vs veh, GTPBP10 / RFU, CNEP1R1 / Fold change vs veh, CNEP1R1 / RFU, BIVM-ERCC5 /// ERCC5 / Fold change vs veh, BIVM-ERCC5 /// ERCC5 / RFU, ILF3 / Fold change vs veh, ILF3 / RFU 11762660_at / Fold change /veh 11762660_at / RFU VCAN (11757783_s_at) / Fold change /veh VCAN (11757783_s_at) / RFU DDX43 (11728927_at) / Fold change /veh DDX43 (11728927_at) / RFU KRT8 (11758188_x_at) / Fold change /veh KRT8 (11758188_x_at) / RFU NKD1 (11759106_at) / Fold change /veh NKD1 (11759106_at) / RFU SRD5A1 (11742802_a_at) / Fold change /veh SRD5A1 (11742802_a_at) / RFU TPSAB1 /// TPSB2 (11721975_s_at) / Fold change /veh TPSAB1 /// TPSB2 (11721975_s_at) / RFU GSTM3 (11746129_a_at) / Fold change /veh GSTM3 (11746129_a_at) / RFU IL23R (11737362_x_at) / Fold change /veh IL23R (11737362_x_at) / RFU TMEM51 (11727254_a_at) / Fold change /veh TMEM51 (11727254_a_at) / RFU PIWIL2 (11732686_x_at) / Fold change /veh PIWIL2 (11732686_x_at) / RFU ORM1 (11744905_x_at) / Fold change /veh ORM1 (11744905_x_at) / RFU CCDC152 (11743942_at) / Fold change /veh CCDC152 (11743942_at) / RFU ECM1 (11717891_a_at) / Fold change /veh ECM1 (11717891_a_at) / RFU IL23R (11748794_a_at) / Fold change /veh IL23R (11748794_a_at) / RFU TNFAIP8L3 (11732012_x_at) / Fold change /veh TNFAIP8L3 (11732012_x_at) / RFU MBOAT4 (11741988_at) / Fold change /veh MBOAT4 (11741988_at) / RFU 11764193_at / Fold change /veh 11764193_at / RFU TMEM53 (11763286_at) / Fold change /veh TMEM53 (11763286_at) / RFU MAGEB2 (11727129_at) / Fold change /veh MAGEB2 (11727129_at) / RFU TMEM200A (11744735_a_at) / Fold change /veh TMEM200A (11744735_a_at) / RFU CCDC152 (11751479_a_at) / Fold change /veh CCDC152 (11751479_a_at) / RFU FAM211A (11726209_a_at) / Fold change /veh FAM211A (11726209_a_at) / RFU RGS16 (11746705_a_at) / Fold change /veh RGS16 (11746705_a_at) / RFU VCAN (11755009_s_at) / Fold change /veh VCAN (11755009_s_at) / RFU RHOB (11743442_s_at) / Fold change /veh RHOB (11743442_s_at) / RFU RGS16 (11720943_a_at) / Fold change /veh RGS16 (11720943_a_at) / RFU RGS16 (11720944_at) / Fold change /veh RGS16 (11720944_at) / RFU, VPS4B / Fold change vs veh, VPS4B / RFU, CREB1 / Fold change vs veh, CREB1 / RFU, DNAJC13 / Fold change vs veh, DNAJC13 / RFU, GNAQ / Fold change vs veh, GNAQ / RFU, CDK5R1 / Fold change vs veh, CDK5R1 / RFU, ZRANB3 / Fold change vs veh, ZRANB3 / RFU, CUL4A / Fold change vs veh, CUL4A / RFU, CCNY / Fold change vs veh, CCNY / RFU, UFL1 / Fold change vs veh, UFL1 / RFU, COG3 / Fold change vs veh, COG3 / RFU, DIAPH2 / Fold change vs veh, DIAPH2 / RFU, SKA2 / Fold change vs veh, SKA2 / RFU, AFF3 / Fold change vs veh, AFF3 / RFU, LMF1 / Fold change vs veh, LMF1 / RFU, IPO11 / Fold change vs veh, IPO11 / RFU, DFFB / Fold change vs veh, DFFB / RFU, FOXP1 / Fold change vs veh, FOXP1 / RFU, CARD8 / Fold change vs veh, CARD8 / RFU, STRN3 / Fold change vs veh, STRN3 / RFU, ADK / Fold change vs veh, ADK / RFU, RASSF2 / Fold change vs veh, RASSF2 / RFU, WIPF1 / Fold change vs veh, WIPF1 / RFU, LARP1B / Fold change vs veh, LARP1B / RFU, RASA1 / Fold change vs veh, RASA1 / RFU, RB1 / Fold change vs veh, RB1 / RFU, PPFIA1 / Fold change vs veh, PPFIA1 / RFU, MAT2A / Fold change vs veh, MAT2A / RFU, CCT5 / Fold change vs veh, CCT5 / RFU, WDR92 / Fold change vs veh, WDR92 / RFU, CUX1 / Fold change vs veh, CUX1 / RFU, TTC7A / Fold change vs veh, TTC7A / RFU, TMEM135 / Fold change vs veh, TMEM135 / RFU, DEPTOR / Fold change vs veh, DEPTOR / RFU, CPM / Fold change vs veh, CPM / RFU, DNAJB6 / Fold change vs veh, DNAJB6 / RFU, CACNA2D3 / Fold change vs veh, CACNA2D3 / RFU, DTX4 / Fold change vs veh, DTX4 / RFU, TFCP2 / Fold change vs veh, TFCP2 / RFU, GMCL1 /// GMCL1P1 / Fold change vs veh, GMCL1 /// GMCL1P1 / RFU, AEBP2 / Fold change vs veh, AEBP2 / RFU, SNHG1 /// SNORD22 /// SNORD25 /// SNORD26 /// SNORD27 /// SNORD28 /// SNORD29 /// SNORD31 / Fold change vs veh, SNHG1 /// SNORD22 /// SNORD25 /// SNORD26 /// SNORD27 /// SNORD28 /// SNORD29 /// SNORD31 / Fold change (Aza/veh), C12orf56 (ProbeSet 11735607_a_at) / Fold change (ACY-1035/veh), C12orf56 (ProbeSet 11735607_a_at) / Fold change (Aza/veh), FGFR1OP (ProbeSet 11751329_s_at) / Fold change (ACY-1035/veh), FGFR1OP (ProbeSet 11751329_s_at) / Fold change (Aza/veh), VPS36 (ProbeSet 11739960_a_at) / Fold change (ACY-1035/veh), VPS36 (ProbeSet 11739960_a_at) / RFU SYPL1 (11715823_x_at) / Fold change /veh SYPL1 (11715823_x_at) / RFU IGFBP7 (11715501_s_at) / Fold change /veh IGFBP7 (11715501_s_at) / RFU REEP3 (11722064_at) / Fold change /veh REEP3 (11722064_at) / RFU IGLL1 (11728026_x_at) / Fold change /veh IGLL1 (11728026_x_at): dose or concentration left out as unconfirmed
Details: ProbeSet 11758397_s_at; LIST B

Nc1ncn([C@@H]2O[C@H](CO)[C@@H](O)[C@H]2O)c(=O)n1 [azacitidine]
RFU, RNF170: 159.42 RFU
